“Also recorded” adds a separate entry of the source.
How the values were obtained:
[1] = HPLC analysis of test article vials and patch controls in air (guinea pig study); format: physicochemical
Method: Squaric acid dibutyl ester (SADBE) at 2% (w/v) concentration in dimethylsulfoxide (DMSO) was added to a skin patch for dermal dosing of SADBE to test for a delayed-type hypersensitivity response or other skin irritation. In the laboratories of Squarex HPLC analysis was conducted to analyze for SADBE content, for analysis of the dose formulation prepared by APS and to determine stability of the test article in the dermal patches during the application time and to test for residual SADBE in the dermal patches after 12 hours applied to the animals.
The skin patches consisted of a polymer backing layer similar to 3M 9916 polyester nonwoven backing layer with adhesive, 3M 9733 polyester film laminate barrier layer, and Precision Fabrics Group 0700-00010 polyester gauze layer. The gauze was heat sealed to the barrier layer. The gauze patch area was 1.53 cm^2.
The tubes of DMSO with patches were transported to the Squarex laboratory, shaken at 200 rpm for 1 hour or more, and then the DMSO from each tube was placed in an injection vial and analyzed for SADBE content by HPLC on a C18 column with the program SADBE3-50 ul. SADBE elutes in this program at about 24.0 minutes and absorbs at 255 nm, so the area of the 24.0 min peak at 255 nm was used to quantify SADBE. The SADBE degradation product squaric acid monobutyl ester (SAMBE) was also quantified by 255 nm area under the curve at the elution time of 12.7 minutes.
The test article vials of 2%, 6%, and 18% SADBE dissolved in DMSO complied with specifications and had the predicted concentrations of SADBE at 24 hours after preparation.
The results indicated the SADBE was stable for more than 12 hours in the patches when not exposed to animal skin. There was no apparent loss of SADBE or conversion of SADBE to SAMBE.

[2] = Toxicity evaluation (body weight, food consumption, clinical observation, histopathology) in guinea pig; format: in vivo
Excerpt: The purpose of this nonGLP study was to evaluate the effect of various concentrations of SADBE delivered via dermal patch, for dose site irritation and toxicity endpoints such as body weights, group food consumption, clinical observation, pre-termination clinical pathology, gross and histopathology.
Thirty (30) guinea pigs (15 female and 15 male) were utilized for this nonGLP study. Prior to and post dosing (dermal patches loaded with 20 microliters of 2, 6, or 18% SADBE drug solution) body weights, group food consumption, and Draize scoring for erythema, eschar formation, and edema at the dose site were be recorded. The dermal patch loaded with SADBE was applied to animals, and left in place for ˜12 hours plus/minus 1 hour. Following the ˜12 hour dosing period, patch sites was assessed by Draize scoring. […] After the 28 days assessment period, re challenge was performed, a second patch (not treated during the induction phase) was applied and assessed by Draize scoring.
At the end of the survival period, blood was collected for standard hematology and serum chemistry analysis, and the animals humanely euthanized. The second dose site and cervical lymph nodes were collected at necropsy for further histopathological evaluation. Dose site was explanted, fixed, and embedded. Dose sites were examined histologically and an evaluation of cell type presence and tissue response conducted.

[3] = 2% patch control, 20 ul, >12 hours in air
[4] = 2% vial, SADBE in DMSO, 24 hours after preparation
[5] = 6% patch control, 20 ul, >12 hours in air
[6] = 6% vial, SADBE in DMSO, 24 hours after preparation
[7] = 18% patch control, 20 ul, >12 hours in air
[8] = 18% vial, SADBE in DMSO, 24 hours after preparation
[9] = any dose tested (2%, 6%, 18% SADBE patch)
[10] = female, Group 1, 2% SADBE patch
[11] = female, Group 3, 18% SADBE patch

For `CCCCOc1c(OCCCC)c(=O)c1=O` [SADBE, squaric acid dibutyl ester], the “% of expected SADBE” value [1, 3] was 106.0%, the “SAMBE as percent of SADBE” value [1, 3] was 0.95% and the “% of expected SADBE” value [1, 4] was 97.5%. For the same compound, the “SAMBE as percent of SADBE” value [1, 4] was 0.84%, the “% of expected SADBE” value [1, 5] was 94.5% and the “SAMBE as percent of SADBE” value [1, 5] was 1.05%. The “% of expected SADBE” value [1, 6] was 102.9%, the “SAMBE as percent of SADBE” value [1, 6] was 0.83% and the “% of expected SADBE” value [1, 7] was 100.3%. For the same compound, the “SAMBE as percent of SADBE” value [1, 7] was 1.01%, the “% of expected SADBE” value [1, 8] was 97.7% and the “SAMBE as percent of SADBE” value [1, 8] was 0.91%. For the same compound, the “time SADBE was stable in the patches” value ([1]; patches not exposed to animal skin, no apparent loss or conversion to SAMBE) was “more than 12 hours”, the lymph node sections ([2]; all SADBE treated groups (summary)) was “within normal limits” and the clinical monitoring observations ([2]; all doses) was “did not reveal any significant abnormalities”. The “histopathology observed at all SADBE treated sites (summary)” value ([2]; all doses) was “mild to moderate parakeratosis, minimal multifocal necrosis and fatty infiltration”, the systemic toxicity ([2]; all doses, post-dosing and daily throughout study) was “no signs of systemic toxicity” and the “effect on body weight” value [2, 9] was “no significant effect; also recorded: not affected”. For the same compound, the “effect on food consumption” value [2, 9] was “no significant effect; also recorded: not affected”, the “histopathology of treated skin sites: inflammatory infiltrates in the dermis” value (from here on “histopathology … in the dermis”) [2, 10] was “multifocal rare to mild infiltrates of inflammatory cells” and the “histopathology of treated skin sites: necrosis, neovascularization, fibrosis, fatty infiltration” value (from here on “histopathology … fibrosis, fatty infiltration”) [2, 10] was “Necrosis, neovascularization, fibrosis and fatty infiltration were not noted”. For the same compound, the “histopathology … in the dermis” value ([2]; female, Group 2, 6% SADBE patch) was “multifocal rare to mild infiltrates of inflammatory cells”, the “histopathology of treated skin sites: necrosis, neovascularization, fatty infiltration” value ([2]; female, Group 2, 6% SADBE patch, narrow fibrous band in three animals) was “Necrosis, neovascularization and fatty infiltration were not noted” and the “histopathology … in the dermis” value [2, 11] was “multifocal rare to mild infiltrates of inflammatory cells”. The “histopathology of treated skin sites: necrosis, neovascularization” value [2, 11] was “Minimal multifocal necrosis and neovascularization was noted”, the “histopathology … in the dermis” value ([2]; male, Group 1, 2% SADBE patch) was “multifocal rare infiltrates of inflammatory cells” and the “histopathology … fibrosis, fatty infiltration” value ([2]; male, Group 1, 2% SADBE patch) was “Necrosis, neovascularization, fibrosis and fatty infiltration were not noted”. For the same compound, the “histopathology … in the dermis” value ([2]; male, Group 2, 6% SADBE patch) was “multifocal rare to mild infiltrates of inflammatory cells”, the “histopathology … fibrosis, fatty infiltration” value ([2]; male, Group 2, 6% SADBE patch) was “Necrosis, neovascularization, fibrosis and fatty infiltration were not noted” and the “histopathology … in the dermis” value ([2]; male, Group 3, 18% SADBE patch) was “multifocal rare to heavy infiltrates of inflammatory cells”. The “histopathology of treated skin sites: necrosis, neovascularization” value ([2]; male, Group 3, 18% SADBE patch) was “Minimal, multofocal necrosis and mild multifocal neovascularization was noted”.

— US20210393932A1, “DERMAL PATCHES AND GLASS SWABS FOR APPLICATION OF TOPICAL IMMUNOSENSITIZERS” (Squarex, LLC, priority 2020, published 2021)
